Experimental data taken from patent US8865894B2, “Oxazolidin-2-one compounds and uses thereof” (Novartis AG, priority 2012, dated 2014).
pIC50: −log10 of the molar value.

Legend:
Assay type in all cases: cell-based
[1] = target: T1, human PI3Kalpha p110 catalytic subunit (Rat-1 pBABEpuro Myr-HA-hp110alpha) (Homo sapiens, UniProt P42336); assay: Cellular assay PI3Kalpha (p-Akt(S473) SureFire, Rat-1_PI3Kalpha cells); settings: 1 h compound treatment, read-out: Rat1-PI3Ka/ IC50
T1 construct: Myr (myristoylation signal) (N); HA (N); expressed in transfected cells; host or cells: Rat-1
T1 sequence (P42336 whole entry): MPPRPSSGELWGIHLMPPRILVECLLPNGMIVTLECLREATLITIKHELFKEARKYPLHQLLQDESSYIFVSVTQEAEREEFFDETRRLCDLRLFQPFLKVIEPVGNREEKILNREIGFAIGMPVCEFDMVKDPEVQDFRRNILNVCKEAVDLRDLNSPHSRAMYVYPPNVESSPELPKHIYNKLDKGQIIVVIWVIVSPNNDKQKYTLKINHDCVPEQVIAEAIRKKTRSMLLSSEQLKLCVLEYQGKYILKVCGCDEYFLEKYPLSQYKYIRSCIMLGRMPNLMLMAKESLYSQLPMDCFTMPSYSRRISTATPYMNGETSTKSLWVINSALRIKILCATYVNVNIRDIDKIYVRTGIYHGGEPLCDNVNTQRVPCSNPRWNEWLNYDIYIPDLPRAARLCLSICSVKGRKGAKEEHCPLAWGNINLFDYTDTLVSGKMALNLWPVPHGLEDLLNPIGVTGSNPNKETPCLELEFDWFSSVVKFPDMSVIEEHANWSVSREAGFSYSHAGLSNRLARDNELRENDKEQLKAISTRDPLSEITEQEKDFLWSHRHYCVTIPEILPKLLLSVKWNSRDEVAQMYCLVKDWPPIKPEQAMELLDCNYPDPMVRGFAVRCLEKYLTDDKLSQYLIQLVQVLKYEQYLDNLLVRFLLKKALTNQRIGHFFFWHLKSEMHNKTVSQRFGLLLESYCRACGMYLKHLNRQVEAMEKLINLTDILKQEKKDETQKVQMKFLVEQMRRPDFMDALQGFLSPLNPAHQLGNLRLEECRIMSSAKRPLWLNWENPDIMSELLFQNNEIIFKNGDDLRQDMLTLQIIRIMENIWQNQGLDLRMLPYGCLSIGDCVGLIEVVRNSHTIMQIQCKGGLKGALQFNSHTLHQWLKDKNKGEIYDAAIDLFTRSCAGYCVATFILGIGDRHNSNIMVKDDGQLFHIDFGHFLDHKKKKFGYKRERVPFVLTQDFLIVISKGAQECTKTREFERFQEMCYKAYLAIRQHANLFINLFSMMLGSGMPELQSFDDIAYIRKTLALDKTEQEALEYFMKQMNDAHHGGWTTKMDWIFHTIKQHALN
T1 sequence (Q63787 whole entry partner): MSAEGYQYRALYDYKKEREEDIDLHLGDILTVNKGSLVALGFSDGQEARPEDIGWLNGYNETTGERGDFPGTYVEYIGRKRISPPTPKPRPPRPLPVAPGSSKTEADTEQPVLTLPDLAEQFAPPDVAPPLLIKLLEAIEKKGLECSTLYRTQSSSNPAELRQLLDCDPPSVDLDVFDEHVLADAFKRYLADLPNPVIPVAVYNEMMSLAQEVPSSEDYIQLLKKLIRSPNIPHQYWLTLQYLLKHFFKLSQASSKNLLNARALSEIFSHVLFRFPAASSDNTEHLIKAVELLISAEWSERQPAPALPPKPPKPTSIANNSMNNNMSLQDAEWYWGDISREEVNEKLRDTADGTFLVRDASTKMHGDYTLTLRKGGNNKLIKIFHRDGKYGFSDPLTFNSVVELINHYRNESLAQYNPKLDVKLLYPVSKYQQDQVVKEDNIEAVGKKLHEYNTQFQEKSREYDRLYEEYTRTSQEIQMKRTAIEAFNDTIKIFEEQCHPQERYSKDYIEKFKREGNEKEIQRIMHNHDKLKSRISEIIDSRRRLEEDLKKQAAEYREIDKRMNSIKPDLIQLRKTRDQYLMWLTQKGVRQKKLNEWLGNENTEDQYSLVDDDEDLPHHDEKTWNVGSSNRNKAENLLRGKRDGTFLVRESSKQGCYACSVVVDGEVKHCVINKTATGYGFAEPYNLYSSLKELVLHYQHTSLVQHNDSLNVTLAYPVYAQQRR
Text: (§1) AlphaScreen (Amplified Luminescent Proximity Homogeneous Assay, ALPHA, Perkin Elmer) is a non-radioactive bead-based proximity assay technology to study biomolecular interactions in a homogenous microtiter plate format. The brand name SureFire denotes AlphaScreen assays that are adapted to quantify the phosphorylation of endogenous cellular proteins in cell lysates, by using matched antibody pairs, which consist of an anti-phospho-kinase and an anti-kinase antibody. The assay allows characterization of kinase signaling in cells as well as measurement of kinase inhibitor effects. The AlphaScreen technology provides several advantages over standard assay techniques such as ELISA, as it avoids time-consuming washing procedures and reduces plate handling. Furthermore, it is miniaturizable at least to a 384-well format and provides sensitivity down to the femtomolar range, dependent on the affinity of the antibodies included in the individual AlphaScreen SureFire assay kit. High sensitivity is reached by an intrinsic amplification mechanism, which involves production of singlet oxygen molecules. SureFire assay kits are commercially available for specific targets and include pairs of validated antibodies (PerkinElmer). This report describes common procedures applied for AlphaScreen SureFire assays and respective semi-automated steps for routine kinase inhibitor profiling in cell-based assays.
(§2) The Rat-1 cell lines stably overexpressing activated PI3K class I isoforms Rat-1 pBABEpuro Myr-HA-hp110 delta (Rat-1_PI3Kdelta) and Rat-1 pBABEpuro Myr-HA-hp110alpha (Rat-1_PI3Kalpha) and Rat-1 pBABEpuro Myr-HA-hp110 beta (Rat-1_PI3beta) were prepared as described (Maira S M, Stauffer F, Brueggen J, Furet P, Schnell C, Fritsch C, Brachmann S, Chène P, de Pover A, Schoemaker K, Fabbro D, Gabriel D, Simonen M, Murphy L, Finan P, Sellers W, García-Echeverría C (2008), Mol Cancer Ther. 7:1851-63 and Maira S M, Pecchi S, Brueggen J, Huh K, Schnell C, Fritsch C, Nagel T, Wiesmann M, Brachmann S, Dorsch M, Chène P, Schoemaker K, De Pover A, Menezes D, Fabbro D, Sellers W, García-Echeverría C, Voliva C F (2011), Mol. Cancer Ther., accepted). All cell lines were cultivated in complete growth medium (DMEM high glucose, 10% (v/v) fetal bovine serum, 1% (v/v) MEM NEAA, 10 mM HEPES, 2 mM L-glutamine, puromycin (10 μg/mL for Rat-1_PI3Kdelta and Rat-1_PI3Kalpha, 4 ug/mL for Rat-1_PI3beta), 1% (v/v) Pen/Strep) to 90% confluency at 37° C./5% CO2/90% humidity in a humidified CO2 incubator and were split twice a week.
(§3) The following materials were used for p-AKT(S473) detection in Rat-1 cell lysates: Dulbecco's modified Eagle's medium (DMEM) high glucose (Gibco Invitrogen, Basel, Switzerland, Cat. No. 41965), Heat Inactivated Fetal Bovine Serum, Qualified (HI FBS; Gibco Invitrogen, Basel, Switzerland, Lot. No. 16140), MEM non essential amino acids (NEAA; Gibco Invitrogen, Basel, Switzerland, Cat. No. 11140), HEPES (Gibco Invitrogen, Basel, Switzerland, Cat. No. 15630), Penicillin/Streptomycin (Pen/Strep, 100×; Gibco Invitrogen, Basel, Switzerland, Cat. No. 15140-122), L-Glutamine (Gibco Invitrogen, Basel, Switzerland, Cat. No. 25030), Puromycin (Sigma Aldrich, Buchs, Switzerland, Cat. No. P9620), DMSO (MERCK, Dietikon, Switzerland, Cat. No. 8.02912.2500), H2O, MilliQ-H2O unless otherwise stated (MILLIPORE QGARDOOR1, Millipore, Zug, Switzerland), Bovine serum albumine (BSA; Sigma Aldrich, Buchs, Switzerland Cat. No. A8412), SureFire p-Akt 1/2 (Ser473) Assay Kit (PerkinElmer, Schwerzenbach, Switzerland, Cat. No. TGRAS50K).
(§4) The p-Akt(S473) SureFire assay measures the phosphorylation of endogenous cellular Akt 1/2 at Ser473 in cell lysates. Using Rat-1 cells stably expressing myr-HA-tagged versions of the human PI3Kdelta, PI3Kalpha, or PI3Kbeta p110 catalytic subunit isoforms, the assay was developed as a two-plate protocol in a 384-well format.

[2] = target: T2, human PI3Kbeta p110 catalytic subunit (Rat-1 pBABEpuro Myr-HA-hp110 beta) (Homo sapiens, UniProt P42338); assay: Cellular assay PI3Kbeta (p-Akt(S473) SureFire, Rat-1_PI3beta cells); settings: p-Akt(S473), 1 h compound treatment; read-out: Rat1-PI3Kb/ IC50
T2 construct: Myr (myristoylation signal) (N); HA (N); expressed in transfected cells; host or cells: Rat-1
T2 sequence (P42338 whole entry): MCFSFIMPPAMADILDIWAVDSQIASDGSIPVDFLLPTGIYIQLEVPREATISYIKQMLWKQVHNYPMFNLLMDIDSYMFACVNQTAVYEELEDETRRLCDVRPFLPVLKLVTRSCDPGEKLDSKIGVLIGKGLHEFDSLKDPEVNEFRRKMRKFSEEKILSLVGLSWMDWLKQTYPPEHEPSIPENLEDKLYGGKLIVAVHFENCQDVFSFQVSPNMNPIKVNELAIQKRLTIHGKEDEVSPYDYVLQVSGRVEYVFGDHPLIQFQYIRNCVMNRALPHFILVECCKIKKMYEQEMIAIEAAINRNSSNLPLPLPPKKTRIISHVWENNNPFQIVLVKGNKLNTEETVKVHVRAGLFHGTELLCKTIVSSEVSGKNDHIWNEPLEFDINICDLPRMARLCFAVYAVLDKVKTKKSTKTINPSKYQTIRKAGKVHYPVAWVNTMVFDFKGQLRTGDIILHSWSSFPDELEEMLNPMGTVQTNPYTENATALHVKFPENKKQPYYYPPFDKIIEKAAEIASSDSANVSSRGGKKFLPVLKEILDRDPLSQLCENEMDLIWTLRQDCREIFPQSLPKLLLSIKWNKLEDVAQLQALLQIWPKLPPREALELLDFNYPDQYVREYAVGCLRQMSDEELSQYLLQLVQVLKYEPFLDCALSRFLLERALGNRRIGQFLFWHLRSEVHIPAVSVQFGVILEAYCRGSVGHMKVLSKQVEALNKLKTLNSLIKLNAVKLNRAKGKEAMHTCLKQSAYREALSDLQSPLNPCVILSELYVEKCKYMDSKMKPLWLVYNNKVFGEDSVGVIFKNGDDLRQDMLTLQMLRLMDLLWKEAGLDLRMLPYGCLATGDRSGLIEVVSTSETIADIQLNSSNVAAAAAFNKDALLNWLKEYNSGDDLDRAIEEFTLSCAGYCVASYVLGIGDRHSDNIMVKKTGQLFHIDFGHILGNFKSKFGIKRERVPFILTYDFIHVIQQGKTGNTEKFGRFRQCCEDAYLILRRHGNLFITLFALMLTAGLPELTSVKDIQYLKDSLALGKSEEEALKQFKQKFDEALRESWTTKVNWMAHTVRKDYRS
T2 sequence (Q63787 whole entry partner): as the sequence (Q63787 whole entry partner) above
Text: as §1, §2, §3, §4

[3] = target: T3, human PI3Kdelta p110 catalytic subunit (Rat-1 pBABEpuro Myr-HA-hp110 delta) (Homo sapiens, UniProt O00329); assay: Cellular assay PI3Kdelta (p-Akt(S473) SureFire, Rat-1_PI3Kdelta cells); settings: 1 h compound treatment, read-out: Rat1-PI3Kd/ IC50
T3 construct: Myr (myristoylation signal) (N); HA (N); expressed in transfected cells; host or cells: Rat-1
T3 sequence (O00329 whole entry): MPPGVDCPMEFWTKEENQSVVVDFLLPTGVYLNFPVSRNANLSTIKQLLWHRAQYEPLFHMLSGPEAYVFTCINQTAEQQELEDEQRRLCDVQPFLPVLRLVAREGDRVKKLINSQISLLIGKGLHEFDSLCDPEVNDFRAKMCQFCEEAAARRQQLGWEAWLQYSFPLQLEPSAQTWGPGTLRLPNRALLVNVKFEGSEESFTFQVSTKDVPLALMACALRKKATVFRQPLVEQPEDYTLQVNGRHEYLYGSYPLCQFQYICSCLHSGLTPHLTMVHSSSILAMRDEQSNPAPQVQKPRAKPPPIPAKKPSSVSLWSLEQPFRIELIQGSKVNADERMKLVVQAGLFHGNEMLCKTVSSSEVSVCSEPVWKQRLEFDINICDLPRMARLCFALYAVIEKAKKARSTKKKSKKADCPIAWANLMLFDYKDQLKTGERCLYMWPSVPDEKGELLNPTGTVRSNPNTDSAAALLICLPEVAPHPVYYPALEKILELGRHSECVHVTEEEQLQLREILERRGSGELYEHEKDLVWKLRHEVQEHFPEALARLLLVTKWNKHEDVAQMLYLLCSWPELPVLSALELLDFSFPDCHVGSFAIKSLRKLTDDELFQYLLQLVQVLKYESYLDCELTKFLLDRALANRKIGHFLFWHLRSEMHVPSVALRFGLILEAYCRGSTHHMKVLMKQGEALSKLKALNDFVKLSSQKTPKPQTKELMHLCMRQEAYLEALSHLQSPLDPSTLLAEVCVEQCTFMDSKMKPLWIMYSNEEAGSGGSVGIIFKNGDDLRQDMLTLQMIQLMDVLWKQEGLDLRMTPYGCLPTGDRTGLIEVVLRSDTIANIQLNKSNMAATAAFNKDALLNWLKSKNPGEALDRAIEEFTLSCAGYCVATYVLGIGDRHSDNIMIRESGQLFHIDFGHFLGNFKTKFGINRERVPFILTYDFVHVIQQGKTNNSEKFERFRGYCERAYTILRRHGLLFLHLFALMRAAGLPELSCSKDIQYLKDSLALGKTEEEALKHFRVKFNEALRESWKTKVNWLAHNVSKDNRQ
T3 sequence (Q63787 whole entry partner): as the sequence (Q63787 whole entry partner) above
Text: as §1, §2, §3, §4

Row | pIC50 [1] | pIC50 [2] | pIC50 [3] | SMILES
1 | 6.97 | 6.80 | 7.06 | C[C@H]1CN(c2cc(-c3cnc(N)nc3C(F)(F)F)nc(N3CCOCC3)n2)C(=O)O1 [Example 16, (S)-3-(2′-Amino-2-morpholin-4-yl-4′-trifluoromethyl-[4,5′]bipyrimidinyl-6-yl)-5-methyl-oxazolidin-2-one]
2 | 6.75 | 6.77 | 6.81 | [2H]C1([2H])OC([2H])([2H])C([2H])([2H])N(c2nc(-c3cnc(N)nc3C(F)(F)F)cc(N3C(=O)OC[C@@H]3C)n2)C1([2H])[2H] [Example 17, (S)-3-(2′-amino-2-D8-morpholino-4′-(trifluoromethyl)-[4,5′-bipyrimidin]-6-yl)-4-methyloxazolidin-2-one]
3 | 7.42 | 7.06 | 7.55 | C[C@H]1OC(=O)N(c2cc(-c3cnc(N)nc3C(F)(F)F)nc(N3CCOCC3)n2)[C@H]1CO [Example 18, (4S,5R)-3-(2′-Amino-2-morpholin-4-yl-4′-trifluoromethyl-[4,5′]bipyrimidinyl-6-yl)-4-hydroxymethyl-5-methyl-oxazolidin-2-one]
4 | 7.30 | 7.15 | 7.47 | C[C@H]1[C@@H](CO)OC(=O)N1c1cc(-c2cnc(N)nc2C(F)(F)F)nc(N2CCOCC2)n1 [Example 19, (4S,5S)-3-(2′-Amino-2-morpholin-4-yl-4′-trifluoromethyl-[4,5′]bipyrimidinyl-6-yl)-5-hydroxymethyl-4-methyl-oxazolidin-2-one]
5 | 6.80 | 6.91 | 6.95 | Nc1ncc(-c2cc(N3C[C@H](CO)OC3=O)nc(N3CCOCC3)n2)c(C(F)(F)F)n1 [Example 20, (R)-3-(2′-Amino-2-morpholin-4-yl-4′-trifluoromethyl-[4,5′]bipyrimidinyl-6-yl)-5-hydroxymethyl-oxazolidin-2-one]
6 | 7.07 | 7.34 | 7.21 | Nc1ncc(-c2cc(N3C(=O)O[C@H]4COC[C@H]43)nc(N3CCOCC3)n2)c(C(F)(F)F)n1 [Example 21, (3aR,6aR)-3-(2′-amino-2-morpholino-4′-(trifluoromethyl)-[4,5′-bipyrimidin]-6-yl)-tetrahydrofuro[3,4-d]oxazol-2(3H)-one]
7 | 7.70 | 7.57 | 7.80 | C[C@H]1[C@@H](CCO)OC(=O)N1c1cc(-c2cnc(N)nc2C(F)(F)F)nc(N2CCOCC2)n1 [Example 23, (4S,5R)-3-(2′-Amino-2-morpholino-4′-(trifluoromethyl)-[4,5′-bipyrimidin]-6-yl)-5-(2-hydroxyethyl)-4-methyloxazolidin-2-one]
